# Measured values as given in patent publication US11873291B2, “Quinoline cGAS antagonist compounds” (ImmuneSensor Therapeutics, Inc., priority 2020, dated 2024).
# Target: T1, recombinant human cGAS (aa147-522) (Homo sapiens, UniProt Q8N884)
# T1 construct: recombinant human cGAS (aa147-522); His6-SUMO (cleaved yes); made in house; host or cells: E. coli BL21/pLys
# Experiment: In vitro inhibition assay of cGAS activity (ATP consumption, KinaseGlo Max)
# Format: biochemical
# Conditions: Table 2, read-out: cGAS Inhibition Results IC50
# Procedure: Expression and Purification of Recombinant cGAS Protein: cDNA encoding full-length or amino acids […] of human cGAS was inserted into a modified pET28a vector containing an in-frame His6-SUMO tag. The E. coli strain BL21/pLys harboring the plasmid was induced with 0.5 mM IPTG at 18° C. overnight. His6-SUMO tag was removed by a SUMO protease digestion following purification of the His6-SUMO-cGAS as described previously (Sun et al, 2013, Science 339, 786).
# In vitro inhibition assay of cGAS activity: A 60 μL mixture containing 20 mM Tris-Cl, pH 7.5, 5 mM MgCl2, 0.2 mg/mL BSA, 0.01 mg/mL Herring testis DNA, 6.6 μM ATP, 0.1 mM GTP, 1.5 μg/mL of recombinant human cGAS (aa147-522) and serial dilutions of a test compound in DMSO was added to a 96-well plate and incubated at 37° C. for 20 minutes. At the end of reaction, 40 μL of KinaseGlo Max (Promega) was added and chemiluminescence was measured with a luminometer. Inhibitory effect of a compound is evaluated by plotting percentage of ATP consumption against logarithm of compound concentrations. IC50 value was calculated using GraphPad Prism 8 (GraphPad Software, Inc.).
# The letter codes for cGAS IC50 include: A (<2 μM); B (2-30 μM); C (>30 μM).
# T1 sequence (Q8N884 147-522): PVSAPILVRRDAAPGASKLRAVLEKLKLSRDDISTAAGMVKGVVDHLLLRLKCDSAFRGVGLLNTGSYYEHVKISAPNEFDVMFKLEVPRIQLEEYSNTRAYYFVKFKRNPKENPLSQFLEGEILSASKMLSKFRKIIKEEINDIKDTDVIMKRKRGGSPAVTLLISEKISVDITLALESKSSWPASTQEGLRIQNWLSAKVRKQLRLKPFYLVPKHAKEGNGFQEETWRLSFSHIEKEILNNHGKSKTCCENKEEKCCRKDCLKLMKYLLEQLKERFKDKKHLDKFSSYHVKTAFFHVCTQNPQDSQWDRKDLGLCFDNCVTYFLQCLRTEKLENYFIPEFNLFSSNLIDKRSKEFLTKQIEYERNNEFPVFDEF
row,Compound,IC50
1,O=C(O)CNC(=O)[C@@H]1CCCN1c1cc(-n2ccnc2)c2ccc(Cl)c(Cl)c2n1 [I-323],< 2000 nM
2,O=C(O)[C@@H]1CN(c2cc(-n3ccnc3)c3ccc(Cl)cc3n2)CC[C@H]1O [I-130],2000 to 30000 nM
3,CNS(=O)(=O)CCNc1cc(-n2ccnc2)c2ccc(Cl)c(Cl)c2n1 [I-201],< 2000 nM
4,"O=C(O)/C=C/c1cc(-c2cn[nH]c2)c2ccc(Cl)c(Cl)c2n1 [I-423, 3-(7,8-dichloro-4-(1H-pyrazol-4-yl)quinolin-2-yl)acrylic acid]",< 2000 nM
5,COCn1nccc1S(=O)(=O)NCCN(C)c1cc(-n2ccnc2)c2ccc(Cl)cc2n1 [I-229],> 30000 nM
6,"O=C(O)C1CCC=C(c2cc(-c3cn[nH]c3)c3ccc(Cl)c(Cl)c3n2)C1 (stereo not drawn) [I-273, 3-(7,8-dichloro-4-(1H-pyrazol-4-yl)quinolin-2-yl)cyclohex-3-ene-1-carboxylic acid]",2000 to 30000 nM
7,Cc1cccc2nc(NCCS(N)(=O)=O)cc(-c3cn[nH]c3)c12 [I-267],> 30000 nM
8,"CC(=O)N1CCOC(CNc2cc(-c3cn[nH]c3)c3ccc(Cl)c(Cl)c3n2)C1 (stereo not drawn) [I-221, 1-(2-(((7,8-dichloro-4-(1H-pyrazol-4-yl)quinolin-2-yl)amino)methyl)morpholino)ethan-1-one]",< 2000 nM
9,CN(C)S(=O)(=O)CCNc1cc(-n2ccnc2)c2ccc(Cl)c(Cl)c2n1 [I-202],< 2000 nM
10,CCOc1cc(-n2ccnc2)c2ccc(Cl)cc2n1 [I-280],> 30000 nM
11,Brc1ccc2c(-n3cccn3)ccnc2c1 [I-414],> 30000 nM
12,O=C(O)CNc1cc(Cl)c2ccc(Cl)c(Cl)c2n1 [I-171],> 30000 nM
13,Clc1ccc2c(-c3cn[nH]c3)cc(NCC3CNCCO3)nc2c1Cl (stereo not drawn) [I-220],2000 to 30000 nM
14,NC(=O)C1CN(c2cc(-c3cn[nH]c3)c3ccc(Cl)c(Cl)c3n2)CCO1 (stereo not drawn) [I-371],< 2000 nM
15,CN(CCC(N)=O)c1cc(-c2cn[nH]c2)c2ccc(Cl)c(Cl)c2n1 [I-191],< 2000 nM
16,"O=C(O)CNc1cc(-n2ccnc2)c2ccc(Cl)cc2n1 [I-166, (7-chloro-4-(1H-imidazol-1-yl)quinolin-2-yl)glycine]",2000 to 30000 nM
17,CNC(=O)CCN(C)c1cc(-c2cn[nH]c2)c2ccc(Cl)c(Cl)c2n1 [I-192],< 2000 nM
18,O=C(O)CNC(=O)[C@H]1CN(c2cc(-c3cn[nH]c3)c3ccc(Cl)c(Cl)c3n2)CCO1 [I-343],2000 to 30000 nM
19,NS(=O)(=O)CC1CCCN1c1cc(-n2ccnc2)c2ccc(Cl)c(Cl)c2n1 (stereo not drawn) [I-148],< 2000 nM
20,OCCC1CCCN(c2cc(-c3cn[nH]c3)c3ccc(Cl)c(Cl)c3n2)C1 (stereo not drawn) [I-375],2000 to 30000 nM
21,CS(=O)(=O)C1CCCN(c2cc(-n3ccnc3)c3ccc(Cl)cc3n2)C1 (stereo not drawn) [I-117],2000 to 30000 nM
22,Cc1ccc2c(-c3cn[nH]c3)cc(NCCS(N)(=O)=O)nc2c1 [I-266],> 30000 nM
23,Clc1ccc2c(-c3cn[nH]c3)cc(NCCN3CCOCC3)nc2c1Cl [I-213],2000 to 30000 nM
24,CN(CCC(=O)NCC(=O)O)c1cc(-c2cn[nH]c2)c2ccc(Cl)c(Cl)c2n1 [I-196],< 2000 nM
25,CN(CCC(=O)NCCO)c1cc(-c2cn[nH]c2)c2ccc(Cl)c(Cl)c2n1 [I-194],< 2000 nM
26,CC(C)(NC(=O)C[C@@H]1CCCN1c1cc(-n2ccnc2)c2ccc(Cl)c(Cl)c2n1)C(=O)O [I-387],< 2000 nM
27,NS(=O)(=O)CCNc1cc(Cl)c2ccc(Cl)c(Cl)c2n1 [I-295],> 30000 nM
28,CC(C)(C)OC(=O)NC[C@@H]1CCCN1c1cc(-n2ccnc2)c2ccc(Cl)c(Cl)c2n1 [I-152],2000 to 30000 nM

# The next lines start with the values.
row,IC50,Compound
1,< 2000 nM,O[C@H]1CCN(c2cc(-n3ccnc3)c3ccc(Cl)c(Cl)c3n2)C1 [I-144]
2,2000 to 30000 nM,C[C@H](CC(=O)O)Nc1cc(-n2ccnc2)c2ccc(Cl)c(Cl)c2n1 [I-185]
3,2000 to 30000 nM,"NS(=O)(=O)CC(Cc1ccccc1)Nc1cc(-n2ccnc2)c2ccc(Cl)c(Cl)c2n1 (stereo not drawn) [I-208, 2-((7,8-dichloro-4-(1H-imidazol-1-yl)quinolin-2-yl)amino)-3-phenylpropane-1-sulfonamide]"
4,> 30000 nM,COc1c(-c2ccccc2)ccc2c(-n3ccnc3)cc(-c3ccccc3)nc12 [I-51]
5,> 30000 nM,Clc1c(-n2ccnc2)cc2c(-n3ccnc3)cc(-c3ccccc3)nc2c1Cl [I-52]
6,< 2000 nM,O=C(O)C1CN(c2cc(-n3ccnc3)c3ccc(Cl)c(Cl)c3n2)CCO1 (stereo not drawn) [I-91]
7,< 2000 nM,"COc1c(Br)ccc2c(-n3ccnc3)cc(-c3cccc(C(=O)O)c3)nc12 [I-48, 3-(7-Bromo-4-(1H-imidazol-1-yl)-8-methoxyquinolin-2-yl)benzoic acid]"
8,> 30000 nM,CC(=O)c1cn(-c2cc(-c3ccccc3)nc3cc(Cl)ccc23)cn1 [I-66]
9,2000 to 30000 nM,"NC(=O)c1cccc(-c2cc(-n3ccnc3)c3ccc(Cl)cc3n2)c1 [I-7, 3-(7-chloro-4-(1H-imidazol-1-yl)quinolin-2-yl)benzamide]"
10,2000 to 30000 nM,Cc1ccc(-c2cc(-n3ccnc3)c3ccc(Br)cc3n2)cc1 [I-385]
11,> 30000 nM,O=C(Nc1ccccc1)[C@@H]1CCCN1c1cc(-n2ccnc2)c2ccc(Cl)c(Cl)c2n1 [I-348]
12,2000 to 30000 nM,O=C(O)CN(CCCO)c1cc(-n2ccnc2)c2ccc(Cl)c(Cl)c2n1 [I-173]
13,2000 to 30000 nM,"Cc1c(Cl)ccc2c(-n3ccnc3)ccnc12 [I-421, 7-chloro-4-(1H-imidazol-1-yl)-8-methylquinoline]"
14,< 2000 nM,O=C(N[C@@H]1C[C@@H](C(=O)O)N(c2cc(-n3ccnc3)c3ccc(Cl)c(Cl)c3n2)C1)c1ccccc1 [I-350]
15,> 30000 nM,CCOC(=O)c1ccccc1-c1cc(-n2ccnc2)c2ccc(Cl)cc2n1 [I-12]
16,2000 to 30000 nM,CN(CCNS(=O)(=O)c1cncn1C)c1cc(-n2ccnc2)c2ccc(Cl)cc2n1 [I-232]
17,< 2000 nM,COC[C@@H]1CCCN1c1cc(-n2ccnc2)c2ccc(Cl)c(Cl)c2n1 [I-147]
18,< 2000 nM,O=C(O)CC1COCCN1c1cc(-n2ccnc2)c2ccc(Cl)c(Cl)c2n1 (stereo not drawn) [I-94]
19,< 2000 nM,Nc1ccc(-c2cc(-n3ccnc3)c3ccc(Cl)cc3n2)cc1C(=O)O [I-20]
20,< 2000 nM,"O=C(O)c1cc(-c2cc(-n3ccnc3)c3ccc(Cl)cc3n2)ccc1OCCO [I-21, 5-(7-chloro-4-(1H-imidazol-1-yl)quinolin-2-yl)-2-(2-hydroxyethoxy)benzoic acid]"
21,> 30000 nM,Clc1ccc2c(-c3cc[nH]c3)cc(-c3ccccc3)nc2c1 [I-72]

# Same assay, conditions: Table 3, read-out: cGAS Inhibition Results IC50
row,Compound,IC50
1,CN(CCC(=O)O)C(=O)C[C@@H]1CCCN1c1cc(-n2ccnc2)c2ccc(Cl)c(Cl)c2n1 [I-525],< 2000 nM
2,CC(C)(C)c1ccc2c(-n3ccnc3)cc(N3CCC[C@H]3COCCC(=O)O)nc2c1 [I-858],> 30000 nM
3,O=C(O)COC[C@H]1CCCN(c2cc(-c3cn[nH]c3)c3ccc(Cl)c(Cl)c3n2)C1 [I-746],< 2000 nM
4,O=C(O)C1CCCCN1C(=O)[C@@H]1CCCN1c1cc(-n2ccnc2)c2ccc(Cl)c(Cl)c2n1 (stereo partly drawn) [I-547],2000 to 30000 nM
5,CC(C)[C@H](NC(=O)C[C@@H]1CCCN1c1cc(-n2ccnc2)c2ccc(Cl)c(Cl)c2n1)C(=O)O [I-526],< 2000 nM
6,COC(=O)C(O)[C@@H]1CCCN1c1cc(-n2ccnc2)c2ccc(Cl)c(Cl)c2n1 (stereo partly drawn) [I-662],2000 to 30000 nM
7,COC(=O)[C@@H]1CC[C@H](C)N1c1cc(-n2ccnc2)c2ccc(Cl)c(Cl)c2n1 [I-574],2000 to 30000 nM
8,O=C(O)[C@@H]1C[C@H](OC(=O)N2CCOCC2)CN1c1cc(-n2ccnc2)c2ccc(Cl)c(Cl)c2n1 [I-571],< 2000 nM

# More lines, now with the values ahead:
row,IC50,Compound
1,< 2000 nM,O=C(O)[C@H]1[C@@H](O)CCN1c1cc(-n2ccnc2)c2ccc(Cl)c(Cl)c2n1 [I-499]
2,< 2000 nM,CO[C@@H]1CCN(c2cc(-n3ccnc3)c3ccc(Cl)c(Cl)c3n2)[C@@H]1C(=O)O [I-559]
3,< 2000 nM,CN(CCNC(=O)CO)c1cc(-n2ccnc2)c2ccc(Cl)c(Cl)c2n1 [I-613]
4,< 2000 nM,O=C(O)COC[C@@H]1[C@@H](O)CCN1c1cc(-n2ccnc2)c2ccc(Cl)c(Cl)c2n1 [I-697]
5,< 2000 nM,O[C@@H]1CN(c2cc(-n3ccnc3)c3ccc(Cl)c(Cl)c3n2)C[C@H]1O [I-501]
6,2000 to 30000 nM,CC1(C)CCN(c2cc(-n3ccnc3)c3ccc(Cl)c(Cl)c3n2)C1C(=O)O (stereo not drawn) [I-483]
7,< 2000 nM,O=C(O)[C@@H]1CC[C@H](c2ccccc2)N1c1cc(-n2ccnc2)c2ccc(Cl)c(Cl)c2n1 [I-487]
8,< 2000 nM,O=C(O)[C@@H]1C[C@@H]2CCC[C@@H]2N1c1cc(-n2ccnc2)c2ccc(Cl)c(Cl)c2n1 [I-515]
9,2000 to 30000 nM,COC(=O)[C@@H]1c2ccccc2CN1c1cc(-n2ccnc2)c2ccc(Cl)c(Cl)c2n1 [I-660]
10,< 2000 nM,Clc1ccc2c(-n3ccnc3)cc(N3CCC(c4nn[nH]n4)C3)nc2c1Cl (stereo not drawn) [I-464]
11,2000 to 30000 nM,NC(=O)[C@@H]1C[C@@H](O)CN1c1cc(-n2ccnc2)c2ccc(Cl)c(Cl)c2n1 [I-502]
12,2000 to 30000 nM,CN(CCNC(=O)c1cccc(C(=O)O)c1)c1cc(-n2ccnc2)c2ccc(Cl)c(Cl)c2n1 [I-620]
13,< 2000 nM,O=C(O)[C@@H]1[C@@H](F)CCN1c1cc(-n2ccnc2)c2ccc(Cl)c(Cl)c2n1 [I-651]
14,2000 to 30000 nM,CC(C)N(CCCOc1cccc(F)c1C(=O)O)c1cc(-n2ccnc2)c2ccc(Cl)c(Cl)c2n1 [I-850]
15,2000 to 30000 nM,CN(CCNS(=O)(=O)c1ccc(C(=O)O)cc1)c1cc(-n2ccnc2)c2ccc(Cl)c(Cl)c2n1 [I-612]
